Experimental data from ChEMBL document CHEMBL5608173, “Discovery of novel natural-product-derived mutant isocitrate dehydrogenases 1 inhibitors: Structure-based virtual screening, biological evaluation and structure-activity relationship study” (Eur J Med Chem, 2024).

Key:
[1] = Toxicity in Sprague-Dawley rat assessed as observable clinical signs at 5 mg/kg, po measured after 24 hrs; type: organism-based; settings: in vivo
[2] = AUC (0 to t) in Sprague-Dawley rat at 5 mg/kg, po measured after 24 hrs by LC-MS/MS analysis; type: ADME, organism-based; settings: in vivo
[3] = AUC (0 to t) in Sprague-Dawley rat at 0.5 mg/kg, iv measured after 24 hrs by LC-MS/MS analysis; type: ADME, organism-based; settings: in vivo
HT-1080 [4] = assay: Cell cycle arrest in human HT-1080 cells assessed as G1 phase cells at 2 uM incubated for 24 hrs by PI staining based flow cytometric analysis (reference value: 58.1 %); type: functional
[5] = Oral bioavailability in Sprague-Dawley rat at 5 mg/kg measured after 24 hrs by LC-MS/MS analysis; type: ADME, organism-based; settings: in vivo
[6] = In vivo inhibition of IDH1 mutant in female nude mouse xenografted with human HT-1080 cells assessed as reduction in 2-HG levels in tumor at 40 mg/kg, ip administered twice at 1 hrs interval by resazurin fluorescence dye based Sigma MAK320-1 assay kit analysis relative to control; type: functional
HT-1080 [7] = assay: Induction of apoptosis in human HT-1080 cells assessed as late apoptotic cells at 2 uM incubated for 48 hrs by Annexin V-FITC/PI staining based flow cytometric analysis (reference value: 1.15 %); type: functional
HT-1080 [8] = assay: Induction of apoptosis in human HT-1080 cells assessed as early apoptotic cells at 2 uM incubated for 48 hrs by Annexin V-FITC/PI staining based flow cytometric analysis (reference value: 2.33 %); type: functional
[9] = target: Isocitrate dehydrogenase [NADP] cytoplasmic (Homo sapiens, UniProt O75874, R132C); assay: Inhibition of IDH1 R132C mutant in human HT-1080 cells assessed as reduction in 2-HG level incubated for 48 hrs in presence of NAD+ by resazurin fluorescence dye based Sigma MAK320-1 assay kit analysis; type: cell-based
Chain of Isocitrate dehydrogenase [NADP] cytoplasmic (Homo sapiens, UniProt O75874, R132C) (O75874 2-414 R132C limits assumed): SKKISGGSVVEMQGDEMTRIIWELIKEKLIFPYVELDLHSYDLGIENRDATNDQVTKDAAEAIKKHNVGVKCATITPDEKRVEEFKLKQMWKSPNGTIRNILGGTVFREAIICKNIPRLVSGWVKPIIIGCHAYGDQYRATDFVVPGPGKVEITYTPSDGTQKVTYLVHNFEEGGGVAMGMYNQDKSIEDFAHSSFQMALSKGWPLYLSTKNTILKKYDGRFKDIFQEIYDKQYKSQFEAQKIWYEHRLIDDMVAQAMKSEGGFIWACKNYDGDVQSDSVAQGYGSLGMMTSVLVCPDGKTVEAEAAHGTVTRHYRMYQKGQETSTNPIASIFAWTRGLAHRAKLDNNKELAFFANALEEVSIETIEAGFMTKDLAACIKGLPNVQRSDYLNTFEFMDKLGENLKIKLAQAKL

BEAS-2B = assay: Cytotoxicity against human BEAS-2B cells assessed as reduction in cell viability at 0.5 to 2 uM; type: toxicity, cell-based; settings: dose 0.5-2 µM
HT-1080 [10] = assay: Induction of apoptosis in human HT-1080 cells assessed as necrotic cells at 2 uM incubated for 48 hrs by Annexin V-FITC/PI staining based flow cytometric analysis (reference value: 0.45 %); type: functional
[11] = Tmax in Sprague-Dawley rat at 0.5 mg/kg, iv measured after 24 hrs by LC-MS/MS analysis; type: ADME, organism-based; settings: in vivo
[12] = Half-life in Sprague-Dawley rat at 5 mg/kg, po measured after 24 hrs by LC-MS/MS analysis; type: ADME, organism-based; settings: in vivo
HT-1080 [13] = assay: Induction of apoptosis in human HT-1080 cells assessed as late apoptotic cells at 6 uM incubated for 12 hrs by Annexin V-FITC/PI staining based flow cytometric analysis (reference value: 0.60 %); type: functional
HT-1080 [14] = assay: Cell cycle arrest in human HT-1080 cells assessed as G2 phase cells at 2 uM incubated for 24 hrs by PI staining based flow cytometric analysis (reference value: 23.6 %); type: functional
HT-1080 [15] = assay: Induction of apoptosis in human HT-1080 cells assessed as necrotic cells at 6 uM incubated for 48 hrs by Annexin V-FITC/PI staining based flow cytometric analysis (reference value: 0.38 %); type: functional
[16] = system: Isocitrate dehydrogenase [NADP] cytoplasmic (Homo sapiens), O75874 [R132H]; assay: Inhibition of recombinant human IDH1 R132H mutant extracted from Escherichia coli BL21 (DE3) cells using alpha-ketoglutarate as substrate at 2 uM incubated for 60 mins in presence of NADPH by absorbance based assay relative to control
Chain of Isocitrate dehydrogenase [NADP] cytoplasmic (Homo sapiens), O75874 [R132H] (O75874 whole entry R132H): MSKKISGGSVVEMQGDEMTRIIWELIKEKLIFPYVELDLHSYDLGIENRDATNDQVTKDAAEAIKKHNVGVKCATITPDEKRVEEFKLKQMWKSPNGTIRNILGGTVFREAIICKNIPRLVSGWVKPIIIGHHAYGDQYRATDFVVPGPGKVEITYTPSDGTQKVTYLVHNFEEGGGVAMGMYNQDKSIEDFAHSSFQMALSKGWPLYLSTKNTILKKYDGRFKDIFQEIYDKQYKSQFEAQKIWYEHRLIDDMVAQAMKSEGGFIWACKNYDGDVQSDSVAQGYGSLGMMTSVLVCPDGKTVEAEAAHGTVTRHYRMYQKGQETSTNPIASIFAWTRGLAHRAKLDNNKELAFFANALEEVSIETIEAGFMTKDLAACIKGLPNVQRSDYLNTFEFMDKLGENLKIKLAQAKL

HT-1080 [17] = assay: Induction of apoptosis in human HT-1080 cells assessed as early apoptotic cells at 8 uM incubated for 48 hrs by Annexin V-FITC/PI staining based flow cytometric analysis (reference value: 2.33 %); type: functional
HT-1080 [18] = assay: Induction of apoptosis in human HT-1080 cells assessed as necrotic cells at 6 uM incubated for 24 hrs by Annexin V-FITC/PI staining based flow cytometric analysis (reference value: 0.38 %); type: functional
HT-1080 [19] = assay: Induction of apoptosis in human HT-1080 cells assessed as late apoptotic cells at 8 uM incubated for 48 hrs by Annexin V-FITC/PI staining based flow cytometric analysis (reference value: 1.15 %); type: functional
HT-1080 [20] = assay: Cell cycle arrest in human HT-1080 cells assessed as G2 phase cells at 4 uM incubated for 24 hrs by PI staining based flow cytometric analysis (reference value: 23.6 %); type: functional
[21] = Half-life in Sprague-Dawley rat at 0.5 mg/kg, iv measured after 24 hrs by LC-MS/MS analysis; type: ADME, organism-based; settings: in vivo
HT-1080 [22] = assay: Induction of apoptosis in human HT-1080 cells assessed as late apoptotic cells at 6 uM incubated for 24 hrs by Annexin V-FITC/PI staining based flow cytometric analysis (reference value: 0.60 %); type: functional
[23] = Toxicity in Sprague-Dawley rat assessed as observable clinical signs at 0.5 mg/kg, iv measured after 24 hrs; type: organism-based; settings: in vivo
HT-1080 [24] = assay: Induction of apoptosis in human HT-1080 cells assessed as late apoptotic cells at 4 uM incubated for 48 hrs by Annexin V-FITC/PI staining based flow cytometric analysis (reference value: 1.15 %); type: functional
HT-1080 [25] = assay: Cell cycle arrest in human HT-1080 cells assessed as S phase cells at 8 uM incubated for 24 hrs by PI staining based flow cytometric analysis (reference value: 18.3 %); type: functional
[26] = system: Isocitrate dehydrogenase [NADP] cytoplasmic (Homo sapiens), O75874 [R132C]; assay: Inhibition of recombinant human IDH1 R132C mutant extracted from Escherichia coli BL21 (DE3) cells using alpha-ketoglutarate as substrate at 0.2 uM incubated for 60 mins in presence of NADPH by absorbance based assay relative to control
Chain of Isocitrate dehydrogenase [NADP] cytoplasmic (Homo sapiens), O75874 [R132C] (O75874 whole entry R132C): as the sequence (O75874 whole entry R132H) above, with H132C counted along it

HT-1080 [27] = assay: Induction of apoptosis in human HT-1080 cells assessed as late apoptotic cells at 6 uM incubated for 48 hrs by Annexin V-FITC/PI staining based flow cytometric analysis (reference value: 0.60 %); type: functional
[28] = system: Isocitrate dehydrogenase [NADP] cytoplasmic (Homo sapiens), O75874 [R132C]; assay: Inhibition of recombinant human IDH1 R132C mutant extracted from Escherichia coli BL21 (DE3) cells using alpha-ketoglutarate as substrate at 2 uM incubated for 60 mins in presence of NADPH by absorbance based assay relative to control
HT-1080 [29] = assay: Induction of apoptosis in human HT-1080 cells assessed as early apoptotic cells at 6 uM incubated for 24 hrs by Annexin V-FITC/PI staining based flow cytometric analysis (reference value: 2.36 %); type: functional
[30] = target: Isocitrate dehydrogenase [NADP] cytoplasmic (Homo sapiens, UniProt O75874); assay: Inhibition of recombinant human wildtype IDH1 extracted from Escherichia coli BL21 (DE3) cells using alpha-ketoglutarate as substrate incubated for 60 mins in presence of NADPH by absorbance based assay
Chain of Isocitrate dehydrogenase [NADP] cytoplasmic (Homo sapiens, UniProt O75874) (O75874 whole entry): as the sequence (O75874 whole entry R132H) above, with H132R counted along it

U-87 MG = assay: Antiproliferative activity against human U-87 MG cells assessed as reduction in cell viability incubated for 72 hrs by MTT assay; type: functional, U-87MG ATCC
[31] = system: Isocitrate dehydrogenase [NADP] cytoplasmic (Homo sapiens), O75874 [R132H]; assay: Inhibition of recombinant human IDH1 R132H mutant extracted from Escherichia coli BL21 (DE3) cells using alpha-ketoglutarate as substrate at 0.2 uM incubated for 60 mins in presence of NADPH by absorbance based assay relative to control

Compound: COc1cc(O)c(-c2cc(-c3ccc(O)cc3)nc(N3CCNCC3)n2)cc1CC=C(C)C
- Activity [1]: Non-Toxic
- AUC(0-t) at 24 h [2]: 370 ng·h/mL
- AUC(0-t) at 24 h [3]: 236 ng·h/mL
- Activity (HT-1080 [4]): 55.7%
- bioavailability [5]: 16.8%
- inhibition in vivo at 40 mg/kg [6]: 96%
- Activity (HT-1080 [7]): 4.96%
- Activity (HT-1080 [8]): 5.1%
- EC50 [9]: 0.084 µM
- Activity (BEAS-2B): Non-Toxic
- Activity (HT-1080 [10]): 1.16%
- Tmax [11]: 1.8 min
- half-life [12]: 2.13 h
- Activity (HT-1080 [13]): 2.92%
- Activity (HT-1080 [14]): 21.9%
- Activity (HT-1080 [15]): 1.35%
- inhibition [16]: > 100%
- Activity (HT-1080 [17]): 7.82%
- Activity (HT-1080 [18]): 4.16%
- Activity (HT-1080 [19]): 17.93%
- Activity (HT-1080 [20]): 21%
- half-life [21]: 1.46 h
- Activity (HT-1080 [22]): 5.26%
- Activity [23]: Non-Toxic
- Activity (HT-1080 [24]): 9.67%
- Activity (HT-1080 [25]): 32.3%
- inhibition [26]: 65.9%
- Activity (HT-1080 [27]): 6.57%
- inhibition [28]: > 100%
- Activity (HT-1080 [29]): 3.25%
- IC50 [30]: > 20 µM
- GC50 (U-87 MG): 6.91 µM
- inhibition [31]: 75.4%
